Results on six compounds are retold here after patent US6395726B1, “3,6-disubstituted penam sulfone derivatives” (priority 1999, dated 2002).

In test [1] the test system is S. marcescens (AmpC, Class C). The test is described as follows: Microbiological assay, broth MIC in combination with piperacillin. The conditions noted are these: for MIC (μg/ml; 1:1) S. marcescens: piperacillin:inhibitor ratio 1:1. The class given is cell-based. As to the method: (§1) Representative compounds according to the present invention were tested in a microbiological assay in combination with the penicillin antibiotic piperacillin. The enhanced combined synergestic antibacterial activity is representative of the β-lactamase inhibitory properties of the compounds of the present invention. In these tests, minimum inhibitory […] (MIC's) are determined in broth using several two-fold dilutions with a 1:1 ratio of piperacillin to inhibitor (N. A. Kuck, N. V. Jacobus, P. J. Peterson, W. J. Weiss, and R. T. Testa, Antibiotic Agents and Chemotherapy, 33:1964-1969 (1989)).

The next test concerns E. coli (TEM-1, Class A). The test is described as above. The class given is cell-based. The conditions noted are these: for MIC (μg/ml; 1:1) E. coli: piperacillin:inhibitor ratio 1:1, broth. The method, then:
as §1

Another test deals with TEM-1 β-lactamase (Escherichia coli, UniProt P62593). The test is described as follows: β-lactamase inhibition, spectrophotometric, nitrocefin substrate. The class given is biochemical.
Sequence of TEM-1 β-lactamase (P62593 24-286 limits assumed): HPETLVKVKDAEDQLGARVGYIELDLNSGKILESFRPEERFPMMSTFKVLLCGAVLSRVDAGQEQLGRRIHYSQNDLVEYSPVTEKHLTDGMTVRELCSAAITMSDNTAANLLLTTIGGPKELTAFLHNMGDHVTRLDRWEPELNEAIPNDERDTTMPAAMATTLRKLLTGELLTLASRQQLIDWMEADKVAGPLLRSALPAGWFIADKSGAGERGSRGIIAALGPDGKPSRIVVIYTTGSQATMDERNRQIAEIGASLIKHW
A further test deals with AmpC β-lactamase (UniProt P18539). The class given is biochemical. The following applies: read-out: IC50 (nM) AmpC.
[2] abbreviates: 10 minute preincubation of enzyme with inhibitor at 25° C., nitrocefin substrate.
The mark [3] stands for this setting: 10 minute preincubation of enzyme with inhibitor at 25° C., nitrocefin substrate, read-out: IC50 (nM) TEM-1.

Where two headings read alike, the source gives them in different places. Marks after values point to notes of the source that are not given here. Some results are limits rather than exact numbers.

In the case of `CCN1CCN(C(=O)N[C@@H](C(=O)N[C@@H]2C(=O)N3[C@@H]2SC(C)(C)[C@@H]3C(=O)O)c2ccccc2)C(=O)C1=O` [Piperacillin, reference compound], the MIC is 32 µg/mL in test [1] (Serratia marcescens, strain GC4132, AmpC (Class C), piperacillin row, no inhibitor named, read-out: MIC (μg/ml) S. marcescens) and greater than 64 µg/mL with E. coli (TEM-1, Class A) (Escherichia coli, read-out: MIC (μg/ml) E. coli).

Broadly, the IC50 is the midpoint of a concentration-inhibition curve. As for `C[C@]1(Cn2ccnn2)C(C(=O)[O-])N2C(=O)[C@@H](CO)C2S1(=O)=O.[Na+]` (some centres unmarked) [Example 1], the “MIC (μg/ml; 1:1) S. marcescens” value in test [1] (strain GC2894, AmpC (Class C)) is 16^e μg/ml. For the same compound, the “MIC (μg/ml; 1:1) E. coli” value in the test on E. coli (TEM-1, Class A) (strain GC2847, TEM-1 (Class A)) was 2^c μg/ml. Also, it took 6 nM to reach half-maximal inhibition at TEM-1 β-lactamase (IC50).

In the case of `C[C@]1(Cn2ccnn2)[C@H](C(=O)O)N2C(=O)C[C@H]2S1(=O)=O` [Tazobactam, reference compound], the “MIC (μg/ml; 1:1) S. marcescens” value in test [1] (strain GC4132, AmpC (Class C)) is 32 µg/mL. In addition, in the test with E. coli (TEM-1, Class A) (strain GC6265, TEM-1 (Class A)), the “MIC (μg/ml; 1:1) E. coli” value was found to be 2 µg/mL. Also, the IC50 at AmpC β-lactamase stood at 47700 nM.

`C[C@]1(/C=C/C#N)[C@H](C(=O)O)N2C(=O)[C@@H](CO)[C@H]2S1(=O)=O` [Example 2 (trans), (E)-(2S,3S,5R,6R)-6-Hydroxymethyl-3-methyl-3-(3-nitrilo-propenyl)-4,4,7-trioxo-4-lambda(6)-thia-1-aza-bicyclo[3.2.0]heptane-2-carboxylic acid]: the “MIC (μg/ml; 1:1) S. marcescens” value in test [1] (strain GC4132, AmpC (Class C)) was 4 µg/mL. Besides, in the test with E. coli (TEM-1, Class A) (strain GC6265, TEM-1 (Class A)), the “MIC (μg/ml; 1:1) E. coli” value worked out at 16 µg/mL. Also, the 50% inhibitory concentration (IC50) was found to be 280 nM at AmpC β-lactamase (setting [2]) and 74 nM on TEM-1 β-lactamase (setting [3]).

For the compound `CON=C[C@@]1(C)[C@H](C(=O)O)N2C(=O)[C@@H](CO)[C@H]2S1(=O)=O` [Example 3, (2S,3R,5R,6R)-6-Hydroxymethyl-3-(methoxyimino-methyl)-3-methyl-4,4,7-trioxo-4-lambda(6)-thia-1-aza-bicyclo[3.2.0]heptane-2-carboxylic acid], the “MIC (μg/ml; 1:1) S. marcescens” value in test [1] (strain GC4132, AmpC (Class C)) was determined as 16 µg/mL. Moreover, in the test with E. coli (TEM-1, Class A) (strain GC6265, TEM-1 (Class A)), the “MIC (μg/ml; 1:1) E. coli” value was determined as 8 µg/mL. Moreover, the half-maximal inhibitory concentration (IC50) on AmpC β-lactamase stood at 280 nM; on TEM-1 β-lactamase, 64 nM.

Take `C[C@]1(/C=C\C#N)[C@H](C(=O)O)N2C(=O)[C@@H](CO)[C@H]2S1(=O)=O` [Example 2 (cis), (Z)-(2S,3S,5R,6R)-6-Hydroxymethyl-3-methyl-3-(3-nitrilo-propenyl)-4,4,7-trioxo-4-lambda(6)-thia-1-azabicyclo[3.2.0]heptane-2-carboxylic acid]: the “MIC (μg/ml; 1:1) S. marcescens” value in test [1] (strain GC4132, AmpC (Class C)) was 8 µg/mL. In addition, the “MIC (μg/ml; 1:1) E. coli” value in the test on E. coli (TEM-1, Class A) (strain GC6265, TEM-1 (Class A)) was determined as 4 µg/mL. Also, the values for the IC50 on AmpC β-lactamase (setting [2]) and at TEM-1 β-lactamase (setting [3]) were 270 nM and 19 nM, respectively.
